Test results published in patent US20120214847A1, “2-[1-PHENYL-5-HYDROXY-4a-SUBSTITUTED-HEXAHYDROCYCLOPENTA[F]INDAZOL-5-YL]ETHYL PHENYL DERIVATIVES AS GLUCOCORTICOID RECEPTOR LIGANDS” (Merck Sharp & Dohme Corp., priority 2009, published 2012).
pEC50: −log10 of the molar value.

Molecular target: T1, human GR (Homo sapiens, UniProt P04150)
T1 construct: naturally expresses the human GR; endogenous in cells
T1 sequence (P04150 1-777): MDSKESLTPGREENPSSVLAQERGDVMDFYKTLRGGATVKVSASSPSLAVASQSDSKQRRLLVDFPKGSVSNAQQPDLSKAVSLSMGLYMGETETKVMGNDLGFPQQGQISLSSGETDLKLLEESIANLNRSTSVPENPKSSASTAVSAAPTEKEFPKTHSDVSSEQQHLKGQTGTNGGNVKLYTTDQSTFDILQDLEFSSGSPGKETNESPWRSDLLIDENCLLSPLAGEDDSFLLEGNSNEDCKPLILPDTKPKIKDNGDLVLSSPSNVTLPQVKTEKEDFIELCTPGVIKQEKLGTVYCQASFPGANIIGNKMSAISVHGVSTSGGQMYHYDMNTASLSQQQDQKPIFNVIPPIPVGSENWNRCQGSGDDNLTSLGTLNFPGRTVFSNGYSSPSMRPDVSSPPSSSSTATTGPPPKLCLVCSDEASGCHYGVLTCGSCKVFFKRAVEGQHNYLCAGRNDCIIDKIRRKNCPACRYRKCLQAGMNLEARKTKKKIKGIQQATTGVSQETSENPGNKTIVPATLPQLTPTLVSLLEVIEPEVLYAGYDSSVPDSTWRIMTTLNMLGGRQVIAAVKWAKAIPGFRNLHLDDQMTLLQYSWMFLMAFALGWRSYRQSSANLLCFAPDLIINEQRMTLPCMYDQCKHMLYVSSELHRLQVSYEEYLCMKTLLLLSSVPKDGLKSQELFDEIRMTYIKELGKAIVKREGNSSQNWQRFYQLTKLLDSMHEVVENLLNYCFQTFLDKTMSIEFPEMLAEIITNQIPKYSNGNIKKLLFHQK
Assay: Trans-activation modulation of glucocorticoid receptor (GRAMMER), MMTV-LUC reporter in A549 cells
Type: cell-based
Conditions: for Emax: A549, A549 cells, Emax relative to the activity obtained with 300 nM dexamethasone, read-out: Transactivation A549 Cells Grammer Emax (%); for pEC50: A549 cells, IP = inflection point, read-out: Transactivation A549 Cells Grammer IP
Excerpt: Trans-Activation Modulation of Glucocorticoid Receptor (GRAMMER)
This assay assesses the ability of test compounds to control transcription from the MMTV-LUC reporter gene in lung adenocarcinoma A549 cells or HeLa cells, a human […] cell line that naturally expresses the human GR. The assay measures induction of a modified MMTV LTR/promoter linked to the LUC reporter gene.
The routine transient assay consists of plating 7,000-25,000 cells/well of a white, clear-bottom 96-well plate. Alternatively, 384-well plates can be used at a cell concentration of 10,000/well. The media that the cells are plated in is “exponential growth medium” which consists of phenol red-free RPMI1640 containing 10% FBS, 4 mM L-glutamine, 20 mM HEPES, 10 ug/mL human insulin, and 20 ug/mL gentamicin. Incubator conditions are 37° C. and 5% C02. The transfection is done in batch mode. The cells are trypsinized and counted to the right cell number in the proper amount of fresh media. It is then gently mixed with the FuGene6/DNA 25 mix and plated onto the 96 or 384-well plate, all the wells receive 100 uL or 40 uL, respectively, of medium+lipid/DNA complex then incubated 37° C. overnight. The transfection cocktail consists of serum-free OptiMEM, FuGene6 reagent and DNA. The manufacturer's (Roche Biochemical) protocol for cocktail setup is as follows: The lipid to DNA ratio is approximately 2.5:1 and the incubation time is 20 min at room temperature. Sixteen to 24 h after transfection, the cells are treated with dexamethasone to a final concentration of 10 nM as well as the compound of interest, such that final DMSO (vehicle) concentration is equal to or less than 1%. Each plate also contains samples that are treated with 10 nM dexamethasone alone, which is used as the 100% activity control. The cells are exposed to the compounds for 24 h. After 24 h, the cells are lysed by a Promega cell culture lysis buffer for approximately 30 min and then the luciferase activity in the extracts is assayed in the 96-well format luminometer. In 384 well format, Steady-Glo (Promega) or Steady-Lite (PerkinElmer) can be used by adding an equal volume of reagent to the media present in each well. Activity induced by 10 nM dexamethasone alone is set at 100% activity. Antagonist activity is calculated by determining the decrease in dexamethasone-induced activity in response to compound treatment relative to samples that were treated with dexamethasone alone. Results are expressed as % inhibition of 10 nM dexamethasone activity or as fold of 10 nM dexamethasone activity. This transactivation assay can be performed in an agonist and antagonist mode to identify these different activities.
Activity of test compounds is calculated as the Emax relative to the activity obtained with 300 nM dexamethasone. […] The exemplified tissue selective glucocorticoid receptor modulators of the present invention display agonist activity in this assay of greater than 5% and less than 100%, and maximal transactivation activity less then maximal transrepression activity. The action of compounds is also tested in an antagonist mode (Anti-GRAMMER) in which the cells are treated with medium containing an agonist such as 10 nM DEX and the ability of agents to inhibit the activation by an agonist is measured.

Row | Emax [%] | pEC50 | Structure (SMILES)
1 | 11 | 8.00 | COc1cccc(CC[C@]2(O)CCC3=Cc4c(cnn4-c4ccc(F)cc4)C[C@@]32C2CC2)c1C(N)=O [Example 38, 2-{2-[(4aR,5R)-4a-Cyclopropyl-1-(4-fluorophenyl)-5-hydroxy-1,4,4a,5,6,7-hexahydrocyclopenta[f]indazol-5-yl]ethyl}-6-methoxybenzamide]
2 | 14 | 6.94 | NC(=O)c1cc(F)ccc1CC[C@]1(O)CCC2=Cc3c(cnn3-c3ccc(F)cc3)C[C@@]21C1CC1 [Example 39, 2-{2-[(4aR,5R)-4a-Cyclopropyl-1-(4-fluorophenyl)-5-hydroxy-1,4,4a,5,6,7-hexahydrocyclopenta[f]indazol-5-yl]ethyl}-5-fluorobenzamide]
3 | 36 | 7.00 | CC[C@]12Cc3cnn(-c4ccc(F)cc4)c3C=C1CC[C@@]2(O)CCc1ccccc1S(=O)(=O)C(C)C [Example 40, (4aS,5R)-4a-Ethyl-1-(4-fluorophenyl)-5-{2-[2-(propan-2-ylsulfonyl)phenyl]ethyl}-1,4,4a,5,6,7-hexahydrocyclopenta[f]indazol-5-ol]
4 | 28 | 6.86 | CC[C@]12Cc3cnn(-c4ccc(F)cc4)c3C=C1CC[C@@]2(O)CCc1nccc(C2CC2)c1C(=O)OC [Example 41, Methyl 4-cyclopropyl-2-{2-[(4aS,5R)-4a-ethyl-1-(4-fluorophenyl)-5-hydroxy-1,4,4a,5,6,7-hexahydrocyclopenta[f]indazol-5-yl]ethyl}pyridine-3-carboxylate]
5 | 34 | 7.80 | CC[C@]12Cc3cnn(-c4ccc(F)cc4)c3C=C1CC[C@@]2(O)CCc1ccccc1S(C)(=O)=O [Example 42, (4aS,5R)-4a-Ethyl-1-(4-fluorophenyl)-5-{2-[2-(methylsulfonyl)phenyl]ethyl}-1,4,4a,5,6,7-hexahydrocyclopenta[f]indazol-5-ol]
6 | 47 | 6.59 | NC(=O)CNC(=O)c1cccnc1CC[C@]1(O)CCC2=Cc3c(cnn3-c3ccc(F)cc3)C[C@@]21C1CC1 [Example 43, N-(2-Amino-2-oxoethyl)-2-{2-[(4aR,5R)-4a-cyclopropyl-1-(4-fluorophenyl)-5-hydroxy-1,4,4a,5,6,7-hexahydrocyclopenta[f]indazol-5-yl]ethyl}pyridine-3-carboxamide]
7 | 39 | 6.81 | NC(=O)CNC(=O)c1cc(F)cnc1CC[C@]1(O)CCC2=Cc3c(cnn3-c3ccc(F)cc3)C[C@@]21C1CC1 [Example 44, N-(2-Amino-2-oxoethyl)-2-{2-[(4aR,5R)-4a-cyclopropyl-1-(4-fluorophenyl)-5-hydroxy-1,4,4a,5,6,7-hexahydrocyclopenta[f]indazol-5-yl]ethyl}-5-fluoropyridine-3-carboxamide]
8 | 39 | 7.66 | CC(C)(CO)NC(=O)c1ccccc1CC[C@]1(O)CCC2=Cc3c(cnn3-c3ccc(F)cc3)C[C@@]21C1CC1 [Example 45, 2-{2-[(4aR,5R)-4a-Cyclopropyl-1-(4-fluorophenyl)-5-hydroxy-1,4,4a,5,6,7-hexahydrocyclopenta[f]indazol-5-yl]ethyl}-N-(1-hydroxy-2-methylpropan-2-yl)benzamide]
9 | 34 | 7.70 | O=C(NC1(CO)CC1)c1ccccc1CC[C@]1(O)CCC2=Cc3c(cnn3-c3ccc(F)cc3)C[C@@]21C1CC1 [Example 46, 2-{2-[(4aR,5R)-4a-Cyclopropyl-1-(4-fluorophenyl)-5-hydroxy-1,4,4a,5,6,7-hexahydrocyclopenta[f]indazol-5-yl]ethyl}-N-[1-(hydroxymethyl)cyclopropyl]benzamide]
10 | 46 | 7.77 | NC(=O)CNC(=O)c1ccccc1CC[C@]1(O)CCC2=Cc3c(cnn3-c3ccc(F)cc3)C[C@@]21C1CC1 [Example 47, N-(2-Amino-2-oxoethyl)-2-{2-[(4aR,5R)-4a-cyclopropyl-1-(4-fluorophenyl)-5-hydroxy-1,4,4a,5,6,7-hexahydrocyclopenta[f]indazol-5-yl]ethyl}benzamide]
11 | 50 | 7.59 | CC(C)(CO)NC(=O)c1cc(F)cnc1CC[C@]1(O)CCC2=Cc3c(cnn3-c3ccc(F)cc3)C[C@@]21C1CC1 [Example 48, 2-{2-[(4aR,5R)-4a-Cyclopropyl-1-(4-fluorophenyl)-5-hydroxy-1,4,4a,5,6,7-hexahydrocyclopenta[f]indazol-5-yl]ethyl}-5-fluoro-N-(1-hydroxy-2-methylpropan-2-yl)pyridine-3-carboxamide]
12 | 30 | 8.05 | NC(=O)c1c(C2CC2)ccnc1CC[C@]1(O)CCC2=Cc3c(cnn3-c3ccc(F)cc3)C[C@@]21C1CC1 [Example 49, 4-Cyclopropyl-2-{2-[(4aR,5R)-4a-cyclopropyl-1-(4-fluorophenyl)-5-hydroxy-1,4,4a,5,6,7-hexahydrocyclopenta[f]indazol-5-yl]ethyl}pyridine-3-carboxamide]
13 | 57 | 7.92 | O=C(NCCO)c1ccccc1CC[C@]1(O)CCC2=Cc3c(cnn3-c3ccc(F)cc3)C[C@@]21C1CC1 [Example 50, 2-{2-[(4aR,5R)-4a-Cyclopropyl-1-(4-fluorophenyl)-5-hydroxy-1,4,4a,5,6,7-hexahydrocyclopenta[f]indazol-5-yl]ethyl}-N-(2-hydroxyethyl)benzamide]
14 | 28 | 7.04 | CC[C@]12Cc3cnn(-c4ccc(F)cc4)c3C=C1CC[C@@]2(O)CCc1ccccc1S(=O)(=O)CC [Example 51, (4aS,5R)-4a-Ethyl-5-{2-[2-(ethylsulfonyl)phenyl]ethyl}-1-(4-fluorophenyl)-1,4,4a,5,6,7-hexahydrocyclopenta[f]indazol-5-ol]
15 | 59 | 7.19 | CC[C@]12Cc3cnn(-c4ccc(F)cc4)c3C=C1CC[C@@]2(O)CCc1ncccc1C(N)=O [Example 52, 2-{2-[(4aS,5R)-4a-Ethyl-1-(4-fluorophenyl)-5-hydroxy-1,4,4a,5,6,7-hexahydrocyclopenta[f]indazol-5-yl]ethyl}pyridine-3-carboxamide]
16 | 49 | 7.11 | CC[C@]12Cc3cnn(-c4ccc(F)cc4)c3C=C1CC[C@@]2(O)CCc1ncc(F)cc1C(N)=O [Example 53, 2-{2-[(4aS,5R)-4a-Ethyl-1-(4-fluorophenyl)-5-hydroxy-1,4,4a,5,6,7-hexahydrocyclopenta[f]indazol-5-yl]ethyl}-5-fluoropyridine-3-carboxamide]
17 | 23 | 7.46 | COc1ccnc(CC[C@]2(O)CCC3=Cc4c(cnn4-c4ccc(F)cc4)C[C@@]32C2CC2)c1C(N)=O [Example 54, 2-{2-[(4aR,5R)-4a-Cyclopropyl-1-(4-fluorophenyl)-5-hydroxy-1,4,4a,5,6,7-hexahydrocyclopenta[f]indazol-5-yl]ethyl}-4-methoxypyridine-3-carboxamide]
